Source: ChEMBL document CHEMBL1126336, “Benzopyranyl-cyanoguanidine potassium channel openers” (Bioorg Med Chem Lett, 1992)
pIC50: −log10 of the molar value.

Assays:
Type in all cases: functional
[1] = organism: Rattus norvegicus; assay: Vasorelaxant potency required to relax methoxamine contracted male Wistar Kyoto rat thoracic aorta
[2] = system: Rattus norvegicus; assay: Antihypertensive activity expressed as percent maximum decrease in blood pressure at 45 umol/kg for 6-12 hrs in male spontaneously hypertensive rats when administered perorally
[3] = system: Rattus norvegicus; assay: Antihypertensive activity expressed as percent maximum decrease in blood pressure at 45 umol/kg for 18-24 hrs in male spontaneously hypertensive rats when administered perorally
[4] = system: Rattus norvegicus; assay: Antihypertensive activity expressed as percent maximum decrease in blood pressure at 45 umol/kg for 0-6 hrs in male spontaneously hypertensive rats when administered perorally
[5] = system: Rattus norvegicus; assay: Antihypertensive activity expressed as percent maximum decrease in blood pressure at 45 umol/kg for 12-18 hrs in male spontaneously hypertensive rats when administered perorally

SMILES	pIC50 [1]	also measured
CC1(C)Oc2ccc(C#N)cc2[C@@H](/N=C(\NC#N)N2CCN(Cc3ccccc3)CC2)[C@@H]1O	4.88	
CN(C)CC/N=C(/NC#N)N[C@@H]1c2cc(C#N)ccc2OC(C)(C)[C@H]1O	< 4.00	
CC1(C)Oc2ccc(C#N)cc2[C@@H](/N=C(\NC#N)N2CCCC2)[C@@H]1O	7.47	
CC1(C)Oc2ccc(C#N)cc2[C@@H](/N=C(/N)NC#N)[C@@H]1O	6.49	
CC/N=C(/NC#N)N[C@@H]1c2cc(C#N)ccc2OC(C)(C)[C@H]1O	6.42	
CC1(C)Oc2ccc(C#N)cc2[C@@H](N2CCCN=C2NC#N)[C@@H]1O	6.92	
CCC(C)(C)/N=C(\NC#N)N[C@@H]1c2cc(C#N)ccc2OC(C)(C)[C@H]1O	4.53	
COCC/N=C(/NC#N)N[C@@H]1c2cc(C#N)ccc2OC(C)(C)[C@H]1O	5.77	
CN(C)/C(=N/[C@@H]1c2cc(C#N)ccc2OC(C)(C)[C@H]1O)NC#N	6.31	
CC(C)/N=C(/NC#N)N[C@@H]1c2cc(C#N)ccc2OC(C)(C)[C@H]1O	6.18	
CC1(C)Oc2ccc(C#N)cc2[C@@H](N2CCN=C2NC#N)[C@@H]1O	6.33	
C/N=C(\NC#N)N[C@@H]1c2cc(C#N)ccc2OC(C)(C)[C@H]1O	6.70	Max decrease [2]: 44%; Max decrease [3]: 15%; Max decrease [4]: 46%; Max decrease [5]: 23%
CC1(C)Oc2ccc(C#N)cc2[C@@H](N2CCCC2=O)[C@@H]1O [CROMAKALIM]		Max decrease [2]: 35%; Max decrease [3]: 42%; Max decrease [4]: 63%; Max decrease [5]: 37%
CC(N/C(=N\C#N)Nc1ccncc1)C(C)(C)C (centres undefined) [PINACIDIL ANHYDROUS]		Max decrease [2]: 21%; Max decrease [3]: 14%; Max decrease [4]: 40%; Max decrease [5]: 23%
